Source: publication PMC5564600 (Oncotarget, 2017)
Read-outs that look alike come from different tables or passages of the source.

Experiments:
Assay in all cases: biochemical
Format in all cases: binding
panel of 442 kinases [1] = biological target: T1, panel of 442 kinases (Homo sapiens, UniProt P53667); details: kinase LIMK1; for remaining activity at 1 µM: read-out: % of control at 1 µM
T1 construct: purchased Ambit Biosciences (scanMAXX KINOMEscan)

panel of 442 kinases [2] = biological target: T2, panel of 442 kinases (Homo sapiens, UniProt Q9H2G2); details: kinase SLK; for remaining activity at 1 µM: read-out: SLK (% of control at 1 µM)
T2 construct: purchased Ambit Biosciences (scanMAXX KINOMEscan)

panel of 442 kinases [3] = biological target: T3, panel of 442 kinases (Homo sapiens, UniProt O94804); details: kinase LOK; for remaining activity at 1 µM: read-out: % of control at 1 µM
T3 construct: purchased Ambit Biosciences (scanMAXX KINOMEscan)

panel of 442 kinases [4] = biological target: T4, panel of 442 kinases (Homo sapiens, UniProt P07332); details: FES; for remaining activity at 1 µM: read-out: % of control at 1 µM
T4 construct: purchased Ambit Biosciences (scanMAXX KINOMEscan)

panel of 442 kinases [5] = biological target: T5, panel of 442 kinases (Homo sapiens, UniProt P49761); details: CLK3; for remaining activity at 1 µM: read-out: % of control at 1 µM
T5 construct: purchased Ambit Biosciences (scanMAXX KINOMEscan)

panel of 442 kinases [6] = biological target: T6, panel of 442 kinases (Homo sapiens, UniProt P53778); details: kinase p38-gamma; for remaining activity at 1 µM: read-out: % of control at 1 µM
T6 construct: purchased Ambit Biosciences (scanMAXX KINOMEscan)
T6 sequence (P53778 1-367): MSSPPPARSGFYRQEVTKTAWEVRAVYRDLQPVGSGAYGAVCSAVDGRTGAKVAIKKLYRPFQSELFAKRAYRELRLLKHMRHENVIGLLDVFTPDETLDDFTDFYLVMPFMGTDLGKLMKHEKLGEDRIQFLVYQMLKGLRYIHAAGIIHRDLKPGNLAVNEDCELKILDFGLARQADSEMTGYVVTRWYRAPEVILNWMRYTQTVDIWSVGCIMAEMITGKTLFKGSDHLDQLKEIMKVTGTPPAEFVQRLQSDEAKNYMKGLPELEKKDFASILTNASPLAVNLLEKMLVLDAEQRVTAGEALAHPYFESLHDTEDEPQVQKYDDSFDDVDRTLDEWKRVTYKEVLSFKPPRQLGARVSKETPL

panel of 442 kinases [7] = biological target: T7, panel of 442 kinases (Homo sapiens, UniProt P53779); details: kinase JNK3; for remaining activity at 1 µM: read-out: % of control at 1 µM
T7 construct: purchased Ambit Biosciences (scanMAXX KINOMEscan)

panel of 442 kinases [8] = biological target: T8, panel of 442 kinases (Homo sapiens, UniProt O14578); details: CIT; for remaining activity at 1 µM: read-out: % of control at 1 µM
T8 construct: purchased Ambit Biosciences (scanMAXX KINOMEscan)

panel of 442 kinases [9] = biological target: T9, panel of 442 kinases (Homo sapiens, UniProt P57059); details: kinase SIK; for remaining activity at 1 µM: read-out: SIK (% of control at 1 µM)
T9 construct: purchased Ambit Biosciences (scanMAXX KINOMEscan)

panel of 442 kinases [10] = biological target: T10, panel of 442 kinases (Homo sapiens, UniProt Q56UN5); details: kinase YSK4; for remaining activity at 1 µM: read-out: YSK4 (% of control at 1 µM)
T10 construct: purchased Ambit Biosciences (scanMAXX KINOMEscan)
T10 sequence (Q56UN5 1-1328): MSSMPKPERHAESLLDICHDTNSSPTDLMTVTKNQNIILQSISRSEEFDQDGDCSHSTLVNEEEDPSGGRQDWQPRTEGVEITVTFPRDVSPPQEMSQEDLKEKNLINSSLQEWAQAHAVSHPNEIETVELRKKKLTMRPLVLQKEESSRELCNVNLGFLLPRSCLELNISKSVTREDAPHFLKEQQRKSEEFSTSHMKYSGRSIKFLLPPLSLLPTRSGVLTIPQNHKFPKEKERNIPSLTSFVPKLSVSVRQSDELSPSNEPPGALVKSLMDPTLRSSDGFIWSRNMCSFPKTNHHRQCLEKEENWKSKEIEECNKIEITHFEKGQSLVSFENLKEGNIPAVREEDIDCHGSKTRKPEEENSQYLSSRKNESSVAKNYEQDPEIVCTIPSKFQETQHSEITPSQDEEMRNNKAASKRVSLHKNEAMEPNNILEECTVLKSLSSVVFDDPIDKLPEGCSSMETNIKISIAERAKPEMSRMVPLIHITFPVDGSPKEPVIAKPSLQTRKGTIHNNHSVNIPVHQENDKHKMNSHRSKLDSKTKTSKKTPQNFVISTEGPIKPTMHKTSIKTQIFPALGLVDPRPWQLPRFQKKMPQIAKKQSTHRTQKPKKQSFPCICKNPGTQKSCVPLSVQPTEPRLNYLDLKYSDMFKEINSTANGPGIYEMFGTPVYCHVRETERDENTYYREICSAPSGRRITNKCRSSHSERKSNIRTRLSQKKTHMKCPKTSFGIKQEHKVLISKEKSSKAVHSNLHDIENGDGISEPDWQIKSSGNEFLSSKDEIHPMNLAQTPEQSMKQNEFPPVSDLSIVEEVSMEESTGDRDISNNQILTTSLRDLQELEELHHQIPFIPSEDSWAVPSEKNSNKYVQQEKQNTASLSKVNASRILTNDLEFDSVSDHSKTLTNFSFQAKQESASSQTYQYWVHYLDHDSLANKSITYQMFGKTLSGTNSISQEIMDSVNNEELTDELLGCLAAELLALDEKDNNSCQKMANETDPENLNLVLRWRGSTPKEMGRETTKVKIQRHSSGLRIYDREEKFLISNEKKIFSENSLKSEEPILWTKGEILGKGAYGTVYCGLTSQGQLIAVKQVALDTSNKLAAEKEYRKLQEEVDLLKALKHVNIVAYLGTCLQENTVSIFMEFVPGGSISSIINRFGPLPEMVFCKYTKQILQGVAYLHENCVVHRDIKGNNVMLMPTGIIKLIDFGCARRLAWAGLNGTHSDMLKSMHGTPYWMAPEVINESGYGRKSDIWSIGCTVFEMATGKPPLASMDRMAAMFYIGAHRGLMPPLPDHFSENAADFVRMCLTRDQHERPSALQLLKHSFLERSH

panel of 442 kinases [11] = biological target: T11, panel of 442 kinases (Homo sapiens, UniProt Q14004); details: for remaining activity at 1 µM: read-out: % of control at 1 µM; for remaining activity at 10 µM: read-out: % of control at 10 µM
T11 construct: purchased Ambit Biosciences (scanMAXX KINOMEscan)

[12] = 10 µM, read-out: % of control at 10 µM

T1 sequence (P53667 whole entry): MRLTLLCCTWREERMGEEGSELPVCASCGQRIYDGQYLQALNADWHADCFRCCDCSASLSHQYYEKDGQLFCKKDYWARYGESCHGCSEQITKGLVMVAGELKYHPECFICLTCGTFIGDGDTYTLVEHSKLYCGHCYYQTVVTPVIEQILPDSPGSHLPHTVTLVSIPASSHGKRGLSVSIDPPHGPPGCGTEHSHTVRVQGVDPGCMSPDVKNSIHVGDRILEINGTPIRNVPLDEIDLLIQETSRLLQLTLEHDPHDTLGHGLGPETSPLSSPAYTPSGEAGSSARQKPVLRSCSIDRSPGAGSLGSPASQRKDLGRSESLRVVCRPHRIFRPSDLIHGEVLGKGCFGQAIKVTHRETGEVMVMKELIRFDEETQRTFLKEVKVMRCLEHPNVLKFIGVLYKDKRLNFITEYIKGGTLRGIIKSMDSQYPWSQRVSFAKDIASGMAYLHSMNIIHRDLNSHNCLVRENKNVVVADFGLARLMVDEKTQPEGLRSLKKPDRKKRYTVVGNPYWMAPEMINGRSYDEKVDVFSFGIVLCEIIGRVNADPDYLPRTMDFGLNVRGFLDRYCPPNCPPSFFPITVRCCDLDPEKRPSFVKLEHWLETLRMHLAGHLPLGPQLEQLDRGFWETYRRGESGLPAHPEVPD
T7 sequence (P53779 whole entry): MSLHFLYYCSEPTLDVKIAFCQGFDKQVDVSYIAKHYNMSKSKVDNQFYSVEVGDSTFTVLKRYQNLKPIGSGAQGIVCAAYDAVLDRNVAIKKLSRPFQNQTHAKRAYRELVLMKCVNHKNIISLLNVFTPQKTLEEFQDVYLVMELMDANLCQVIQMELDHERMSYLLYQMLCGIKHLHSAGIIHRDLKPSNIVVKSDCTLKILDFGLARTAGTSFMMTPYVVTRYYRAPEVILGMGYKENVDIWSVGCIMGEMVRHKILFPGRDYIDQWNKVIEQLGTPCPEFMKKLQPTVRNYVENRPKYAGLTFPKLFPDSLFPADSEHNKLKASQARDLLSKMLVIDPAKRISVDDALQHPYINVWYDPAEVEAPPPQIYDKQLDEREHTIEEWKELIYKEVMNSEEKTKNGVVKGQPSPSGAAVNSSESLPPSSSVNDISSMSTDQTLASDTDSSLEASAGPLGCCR
T3 sequence (O94804 whole entry): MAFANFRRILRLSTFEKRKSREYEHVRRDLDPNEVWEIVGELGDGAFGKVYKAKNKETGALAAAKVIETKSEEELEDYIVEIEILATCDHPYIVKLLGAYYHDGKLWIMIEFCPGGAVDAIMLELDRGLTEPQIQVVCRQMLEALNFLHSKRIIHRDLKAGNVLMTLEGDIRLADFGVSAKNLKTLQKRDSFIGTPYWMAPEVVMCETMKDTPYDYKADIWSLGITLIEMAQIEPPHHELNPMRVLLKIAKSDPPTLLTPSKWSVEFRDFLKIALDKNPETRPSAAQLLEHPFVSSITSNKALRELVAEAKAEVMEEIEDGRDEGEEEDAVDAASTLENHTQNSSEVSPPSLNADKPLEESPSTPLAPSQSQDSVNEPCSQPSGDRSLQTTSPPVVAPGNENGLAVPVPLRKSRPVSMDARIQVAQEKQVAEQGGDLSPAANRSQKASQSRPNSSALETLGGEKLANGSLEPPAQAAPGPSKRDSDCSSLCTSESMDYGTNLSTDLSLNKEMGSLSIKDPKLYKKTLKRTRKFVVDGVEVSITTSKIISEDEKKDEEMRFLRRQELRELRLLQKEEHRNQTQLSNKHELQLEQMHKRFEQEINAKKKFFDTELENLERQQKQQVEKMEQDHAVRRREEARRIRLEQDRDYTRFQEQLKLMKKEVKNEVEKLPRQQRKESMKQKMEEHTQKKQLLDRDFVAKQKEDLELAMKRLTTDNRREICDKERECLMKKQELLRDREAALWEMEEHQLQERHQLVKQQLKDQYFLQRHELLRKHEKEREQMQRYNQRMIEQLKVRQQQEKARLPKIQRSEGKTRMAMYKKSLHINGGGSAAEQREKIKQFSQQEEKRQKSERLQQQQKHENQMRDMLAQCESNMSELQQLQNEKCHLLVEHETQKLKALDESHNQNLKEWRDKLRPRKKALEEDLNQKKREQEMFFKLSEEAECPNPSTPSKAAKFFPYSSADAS
T2 sequence (Q9H2G2 whole entry): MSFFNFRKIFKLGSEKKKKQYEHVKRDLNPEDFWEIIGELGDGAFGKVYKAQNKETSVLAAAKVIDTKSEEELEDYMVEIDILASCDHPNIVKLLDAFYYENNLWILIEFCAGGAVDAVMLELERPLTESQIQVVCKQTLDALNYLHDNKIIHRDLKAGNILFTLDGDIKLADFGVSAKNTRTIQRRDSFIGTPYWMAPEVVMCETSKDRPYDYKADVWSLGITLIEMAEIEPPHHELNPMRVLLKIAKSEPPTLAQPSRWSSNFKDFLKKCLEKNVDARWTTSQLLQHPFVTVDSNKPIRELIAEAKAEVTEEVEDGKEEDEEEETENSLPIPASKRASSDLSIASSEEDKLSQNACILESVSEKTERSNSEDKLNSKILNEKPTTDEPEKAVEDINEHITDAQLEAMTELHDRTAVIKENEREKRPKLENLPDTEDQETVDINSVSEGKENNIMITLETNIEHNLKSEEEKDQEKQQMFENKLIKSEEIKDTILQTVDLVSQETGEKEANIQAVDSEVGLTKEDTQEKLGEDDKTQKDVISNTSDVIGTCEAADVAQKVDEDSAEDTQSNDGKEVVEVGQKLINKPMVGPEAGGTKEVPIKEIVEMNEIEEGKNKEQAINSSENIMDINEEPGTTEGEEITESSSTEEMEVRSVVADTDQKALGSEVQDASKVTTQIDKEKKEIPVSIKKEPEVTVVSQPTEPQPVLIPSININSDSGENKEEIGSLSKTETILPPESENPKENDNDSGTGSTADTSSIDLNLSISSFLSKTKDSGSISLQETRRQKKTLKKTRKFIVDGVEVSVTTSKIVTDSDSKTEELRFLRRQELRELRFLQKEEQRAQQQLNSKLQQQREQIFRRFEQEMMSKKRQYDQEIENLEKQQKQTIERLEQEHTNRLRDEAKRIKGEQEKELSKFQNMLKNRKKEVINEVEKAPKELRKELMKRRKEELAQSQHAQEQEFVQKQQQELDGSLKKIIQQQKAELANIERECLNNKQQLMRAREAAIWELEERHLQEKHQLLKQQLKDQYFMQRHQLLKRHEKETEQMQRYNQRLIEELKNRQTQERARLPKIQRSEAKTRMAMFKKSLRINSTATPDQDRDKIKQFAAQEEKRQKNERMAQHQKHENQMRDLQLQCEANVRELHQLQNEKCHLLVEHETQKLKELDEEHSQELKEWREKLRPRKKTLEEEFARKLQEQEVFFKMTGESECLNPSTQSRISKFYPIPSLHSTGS
T11 sequence (Q14004 whole entry): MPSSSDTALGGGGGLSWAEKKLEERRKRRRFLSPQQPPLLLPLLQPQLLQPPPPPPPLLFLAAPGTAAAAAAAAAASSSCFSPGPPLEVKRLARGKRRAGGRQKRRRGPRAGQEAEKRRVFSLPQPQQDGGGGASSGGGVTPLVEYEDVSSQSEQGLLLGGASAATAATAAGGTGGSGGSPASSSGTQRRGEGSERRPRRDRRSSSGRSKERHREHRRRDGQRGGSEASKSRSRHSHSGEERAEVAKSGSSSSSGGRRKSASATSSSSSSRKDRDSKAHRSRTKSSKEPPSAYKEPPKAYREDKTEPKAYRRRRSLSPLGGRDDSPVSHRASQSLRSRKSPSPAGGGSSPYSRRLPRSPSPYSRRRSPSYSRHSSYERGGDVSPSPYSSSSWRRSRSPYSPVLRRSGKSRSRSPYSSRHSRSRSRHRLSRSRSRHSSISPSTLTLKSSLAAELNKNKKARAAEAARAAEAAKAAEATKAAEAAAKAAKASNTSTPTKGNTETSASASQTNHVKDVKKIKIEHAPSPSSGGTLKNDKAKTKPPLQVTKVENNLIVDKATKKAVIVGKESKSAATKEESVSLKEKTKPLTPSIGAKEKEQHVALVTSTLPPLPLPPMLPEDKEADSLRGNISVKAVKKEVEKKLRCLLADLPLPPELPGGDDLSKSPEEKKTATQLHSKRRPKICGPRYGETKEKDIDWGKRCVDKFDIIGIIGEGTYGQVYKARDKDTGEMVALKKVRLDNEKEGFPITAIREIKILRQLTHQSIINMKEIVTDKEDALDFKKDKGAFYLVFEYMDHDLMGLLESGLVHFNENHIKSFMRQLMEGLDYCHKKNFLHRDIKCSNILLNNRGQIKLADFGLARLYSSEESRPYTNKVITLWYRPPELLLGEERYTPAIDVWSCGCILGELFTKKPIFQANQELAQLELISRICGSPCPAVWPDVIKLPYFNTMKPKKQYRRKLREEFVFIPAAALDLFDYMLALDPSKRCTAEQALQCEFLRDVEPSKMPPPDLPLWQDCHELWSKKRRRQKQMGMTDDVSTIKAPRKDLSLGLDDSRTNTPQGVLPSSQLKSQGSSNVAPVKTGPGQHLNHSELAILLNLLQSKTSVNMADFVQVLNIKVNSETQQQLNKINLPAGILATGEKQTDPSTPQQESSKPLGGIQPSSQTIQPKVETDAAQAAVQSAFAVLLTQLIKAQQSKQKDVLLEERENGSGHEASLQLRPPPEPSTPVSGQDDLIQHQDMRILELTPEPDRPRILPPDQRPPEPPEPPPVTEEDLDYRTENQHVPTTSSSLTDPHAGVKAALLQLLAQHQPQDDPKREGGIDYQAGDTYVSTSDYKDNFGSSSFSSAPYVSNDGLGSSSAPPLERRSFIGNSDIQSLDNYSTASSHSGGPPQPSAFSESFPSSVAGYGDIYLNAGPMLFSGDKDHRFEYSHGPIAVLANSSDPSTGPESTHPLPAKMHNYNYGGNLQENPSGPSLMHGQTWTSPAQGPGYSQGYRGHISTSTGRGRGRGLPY

Row | SMILES | remaining activity at 1 µM (panel of 442 kinases [1]) [%] | remaining activity at 1 µM (panel of 442 kinases [2]) [%] | remaining activity at 1 µM (panel of 442 kinases [3]) [%] | remaining activity at 1 µM (panel of 442 kinases [4]) [%] | remaining activity at 1 µM (panel of 442 kinases [5]) [%] | remaining activity at 1 µM (panel of 442 kinases [6]) [%] | remaining activity at 1 µM (panel of 442 kinases [7]) [%] | remaining activity at 1 µM (panel of 442 kinases [8]) [%] | remaining activity at 1 µM (panel of 442 kinases [9]) [%] | remaining activity at 1 µM (panel of 442 kinases [10]) [%] | remaining activity at 1 µM (panel of 442 kinases [11]; CDC2L5, 1 µM) [%] | remaining activity at 10 µM (panel of 442 kinases [11]; CDC2L5) [%] | further results
1 | Nc1cc(C(F)(F)F)c(-c2cc(N3CCOCC3)nc(N3CCOCC3)n2)cn1 [Buparlisib] | 100 | 100 | 92 | 100 | 100 | 100 | 100 | 100 | 100 | 72 | 75 | 100 | remaining activity at 10 µM (panel of 442 kinases [1]; [12]): 100%; remaining activity at 10 µM (panel of 442 kinases [2]; 10 µM, read-out: SLK (% of control at 10 µM)): 100%; remaining activity at 10 µM (panel of 442 kinases [3]; [12]): 100%; remaining activity at 10 µM (panel of 442 kinases [4]; [12]): 100%; remaining activity at 10 µM (panel of 442 kinases [5]; [12]): 94%; remaining activity at 10 µM (panel of 442 kinases [6]; [12]): 100%; remaining activity at 10 µM (panel of 442 kinases [7]; [12]): 100%; remaining activity at 10 µM (panel of 442 kinases [8]; [12]): 100%; remaining activity at 10 µM (panel of 442 kinases [9]; 10 µM, read-out: SIK (% of control at 10 µM)): 100%; remaining activity at 10 µM (panel of 442 kinases [10]; 10 µM, read-out: YSK4 (% of control at 10 µM)): 78%
2 | Cn1c(=O)n(-c2ccc(C(C)(C)C#N)cc2)c2c3cc(-c4cnc5ccccc5c4)ccc3ncc21 [Dactolisib, 2-methyl-2-[4-(3-methyl-2-oxo-8-quinolin-3-yl-2,3-dihydroimidazo[4,5-c]quinolin-1-yl)-phenyl] propionitrile] | 99 | 89 | 100 | 92 | 50 | 100 | 100 | 65 | 100 | 28 | 87 | – | –
3 | COc1ncc(-c2ccc3nccc(-c4ccnnc4)c3c2)cc1NS(=O)(=O)c1ccc(F)cc1F [Omipalisib] | 100 | 100 | 100 | 100 | 93 | 69 | 90 | 100 | 100 | 77 | 100 | – | –
4 | CS(=O)(=O)N1CCN(Cc2cc3nc(-c4cccc5[nH]ncc45)nc(N4CCOCC4)c3s2)CC1 [Pictilisib, 2-(1H-indazol-4-yl)-6-(4-methanesulfonyl-piperazin-1-ylmethyl)-4-morpholin-4-yl-t hieno[3,2-d]pyrimidine] | – | – | – | – | – | – | – | – | – | – | 70 | 100 | –
5 | FC(F)c1nc2ccccc2n1-c1nc(N2CCOCC2)nc(N2CCOCC2)n1 [ZSTK474, 2-(difluoromethyl)-1-[4,6-di(4-morpholinyl)-1,3,5-triazin-2-yl]-1H-benzimidazole] | 95 | 100 | 100 | 100 | 100 | 100 | 100 | 100 | 100 | 100 | – | – | remaining activity at 1 µM (panel of 442 kinases [11]): 100%
